Experimental data as given in patent US6245734A (priority 1997, dated 2001).
Values after ≈ are worked out from the molar mass of the structure shown. Read-outs that look alike come from different tables or passages of the source.

Experiments:
AsPC-1 cells [1] = experiment: Apoptosis-inducing activity on human pancreatic cancer cell AsPC-1 (Trypan Blue); type: cell-based; details: for IC50: Homo sapiens, read-out: IC50 (concentration at which cell death by apoptosis is induced at 50% of total AsPC-1 cells); for time after drug treatment in which apoptosis was induced on AsPC-1 cells: after the drug treatment
Procedure: A cell suspension containing the AsPC-1 cells suspended in an RPMI 1640 culture medium containing 10% FBS was prepared, and 500 μl-portion each of the cell suspension was placed in a 24-well plastic plate in a proportion of 1×10^5 cells/well. The cell suspension was incubated at 37° C. under 5% CO2 for 1 day. The AsPC-1 cells adhered onto the bottom surface of each well. Subsequently, polyoxypeptin or deoxypolyoxypeptin was added to the liquid culture medium present in each well so as to give the substance under test at a concentration of 3, 100 or 300 μg/ml. The cells were incubated for 24 hours.
Immediately after the incubation for 24 hours, the supernatant liquid (500 μl) of the culture medium remaining in each well was removed from each well of said plastic plate and discarded. Then, the plastic plate was washed twice with a PBS buffer solution (each 300 μl), and the washings were discharged. Thereafter, a trypsin-EDTA buffer solution (200 μl) was added to said plastic plate, and the incubation was effected at 37° C. under CO2 -free condition so as to peel the cells off from the plate. The cells so peeled were transferred to an Eppendorf tube. The Eppendorf tube was centrifuged (2400 rpm, 10 minutes) to deposit the cells down, and the super-natant was removed and discarded. A fresh amount of the liquid culture medium was added to the cells. An 80 μl-portion of the resulting cell suspension as formed in said tube was taken into another Eppendorf tube, to which were then added 20 μl of Trypan Blue staining solution (containing 4 mg/ml of Trypan Blue and 9 mg/ml of NaCl). The cell suspension was taken out from the resulting mixture by a pipette, and the cell suspension so pipetted was placed on a hemocytometer (made by Elma Co.). The cell sample was observed under a microscope of 100 magnifications. The number of the dead cells as blue-colored amongst the cells under observation, and the total number of whole cells under observation were counted.
The survival rate (%) of the cells was calculated by an equation of 100-[(number of dead cells.div. total number of tested cells)×100].

mice = experiment: Acute toxicity in mice, single intravenous injection; type: in vivo, mouse; details: administered once by intravenous injection
Solubility = details: for Solubility in organic solvents: methanol, ethanol, aqueous ethanol, chloroform, ethyl acetate, acetone, (n-)butanol, acetonitrile, toluene, dimethylsulfoxide
AsPC-1 cells [2] = experiment: Activity inhibitory to the proliferation of human pancreatic cancer cell AsPC-1 (MTT assay); type: cell-based; details: ASPC1, 48 h, read-out: IC50 (concentration at which proliferation of AsPC-1 cells was inhibited by 50%)
Procedure: A cell suspension of AsPC-1 cells suspended in an RPMI 1640 culture medium containing 10% FBS was prepared, and 100 μl-portion each of said cell suspension was placed in a 96-well plastic plate in a proportion of 3×10^3 cells/well. Each plate was then incubated at 37° C. under a 5% CO2 for 1 day. Subsequently, polyoxypeptin or deoxypolyoxypeptin was added to the liquid culture medium present in each well at a concentration of 1, 3, 10, 30 or 100 ng/ml of said compound. Then the incubation of the cells was effected for 2 days. Then, the number of cells was counted by MTT assay method.

[3] = tested on: Human pancreatic adenocarcinoma cells PSN-1; experiment: Cytocidal activity, Trypan Blue; type: cell-based; details: read-out: IC50 (concentration required to kill 50% of cells)
Procedure: (§1) Various cancer cells as shown in Table 1 below were incubated for 24 hours on such culture medium as shown in the table which contained polyoxypeptin or deoxypolyoxypeptin added at various concentrations. After staining with Trypan Blue, the number.of the dead cells was counted, and the concentration of polyoxypeptin or deoxypolyoxypeptin required to kill 50% of the total number of cells of the cancer cells under test, namely the value of IC50, was calculated therefrom.

[4] = tested on: Human promyeloleukemia HL-60; experiment: Cytocidal activity, Trypan Blue; type: cell-based; details: read-out: IC50 (concentration required to kill 50% of cells)
Procedure: as §1

Human epithelioma A431 = experiment: Cytocidal activity, Trypan Blue; type: cell-based; details: read-out: IC50 (concentration required to kill 50% of cells)
Procedure: as §1

[5] = tested on: Human T cell leukemia Jurkat; experiment: Cytocidal activity, Trypan Blue; type: cell-based; details: read-out: IC50 (concentration required to kill 50% of cells)
Procedure: as §1

[6] = tested on: Human pancreatic adenocarcinoma cells AsPC-1; experiment: Cytocidal activity, Trypan Blue; type: cell-based; details: read-out: IC50 (concentration required to kill 50% of cells)
Procedure: as §1

[7] = tested on: Mouse fibroblast cell K-ras-NIH3T3; experiment: Cytocidal activity, Trypan Blue; type: cell-based; details: read-out: IC50 (concentration required to kill 50% of cells)
Procedure: as §1

[8] = tested on: Mouse fibroblast cell A4 (cerbB2-NIH3T3); experiment: Cytocidal activity, Trypan Blue; type: cell-based; details: read-out: IC50 (concentration required to kill 50% of cells)
Procedure: as §1

[9] = tested on: Mouse fibroblast cell RSV-NIH3T3 (src-transformed NIH3T3); experiment: Cytocidal activity, Trypan Blue; type: cell-based; details: read-out: IC50 (concentration required to kill 50% of cells)
Procedure: as §1

[10] = tested on: Human chronic promyeloleukemia K562; experiment: Cytocidal activity, Trypan Blue; type: cell-based; details: read-out: IC50 (concentration required to kill 50% of cells)
Procedure: as §1

[11] = tested on: Human bibrosarcoma HT1080; experiment: Cytocidal activity, Trypan Blue; type: cell-based; details: read-out: IC50 (concentration required to kill 50% of cells)
Procedure: as §1

[12] = tested on: Human pancreatic adenocarcinoma cells Panc-1; experiment: Cytocidal activity, Trypan Blue; type: cell-based; details: read-out: IC50 (concentration required to kill 50% of cells)
Procedure: as §1

[13] = tested on: Rat fibroblast cell K-ras-NRK; experiment: Cytocidal activity, Trypan Blue; type: cell-based; details: read-out: IC50 (concentration required to kill 50% of cells)
Procedure: as §1

[14] = tested on: Human uterus body cancer HHUA; experiment: Cytocidal activity, Trypan Blue; type: cell-based; details: read-out: IC50 (concentration required to kill 50% of cells)
Procedure: as §1

[15] = tested on: Human pancreatic adenocarcinoma cells BxPC-3; experiment: Cytocidal activity, Trypan Blue; type: cell-based; details: read-out: IC50 (concentration required to kill 50% of cells)
Procedure: as §1

[16] = tested on: Mouse fibroblast cell NIH3T3; experiment: Cytocidal activity, Trypan Blue; type: cell-based; details: read-out: IC50 (concentration required to kill 50% of cells)
Procedure: as §1

Rat fibroblast cell NRK = experiment: Cytocidal activity, Trypan Blue; type: cell-based; details: read-out: IC50 (concentration required to kill 50% of cells)
Procedure: as §1

Escherichia coli = experiment: Antibacterial activity, serial dilution on Muller-Hinton agar; type: cell-based; details: gram-negative bacteria such as Escherichia coli
Procedure: Antibacterial spectra of polyoxypeptin and deoxypoly-oxypeptin against various microorganisms were determined on Muller-Hinton agar medium by a serial dilution method on the basis of the standard method of Japan Society of Chemotherapy.

[17] = tested on: other human solid cancer cells; experiment: Apoptosis induction on other human solid cancer cells; type: cell-based
incubated cancer cells = details: cited from earlier work
[18] = tested on: leukemia cells and experimental cancer cells artificially generated by carcinogen virus and the like; details: cited from earlier work
[19] = tested on: spontaneously generated human solid cancer cells; details: cited from earlier work
AsPC-1 cell = details: 30 μg/ml adriamycin; cited from earlier work
BxPC-3 cell = details: 3 μg/ml adriamycin, from start of treatment; cited from earlier work

CCC(C)CC1CCC(O)(C(C)(O)C(=O)NC2C(=O)N3NCCCC3C(=O)N(O)C(C)C(=O)N3NCCCC3C(=O)N3CCC(C)(O)C3C(=O)N(O)C(C(C)C)C(=O)OC2C(C)C)OC1CC (centres unmarked) [deoxypolyoxypeptin]
IC50 (AsPC-1 cells [1]; ASPC1, 24 hours incubation, RPMI 1640 with 10% FBS): 0.08 µg/mL (≈ 0.0839 µM) | time after drug treatment in which apoptosis was induced on AsPC-1 cells (AsPC-1 cells [1]): approximately 24 hours | LD50 (mice): 125 μg/mouse | Solubility in organic solvents (Solubility): Soluble | Solubility in water (Solubility): hardly soluble | IC50 (AsPC-1 cells [2]; 2 days incubation, MTT, RPMI 1640 with 10% FBS): 0.015 µg/mL (≈ 0.0157 µM) | IC50 ([3]; PSN1, PSN-1, 24 hours, medium A): 0.01 µg/mL (≈ 0.0105 µM) | IC50 ([4]; HL-60, 24 hours, medium A): 0.04 µg/mL (≈ 0.042 µM) | IC50 (Human epithelioma A431; A-431, A431, 24 hours, medium C): 0.03 µg/mL (≈ 0.0315 µM) | IC50 ([5]; 24 hours, medium B): 0.05 µg/mL (≈ 0.0525 µM) | IC50 ([6]; ASPC1, AsPC-1, 24 hours, medium A): 0.08 µg/mL (≈ 0.0839 µM) | IC50 ([7]; K-ras-NIH3T3, 24 hours, medium A): 0.1 µg/mL (≈ 0.105 µM) | IC50 ([8]; A4 (cerbB2-NIH3T3), 24 hours, medium A): 0.06 µg/mL (≈ 0.0629 µM) | IC50 ([9]; RSV-NIH3T3 (src-transformed NIH3T3), 24 hours, medium A): 0.06 µg/mL (≈ 0.0629 µM) | IC50 ([10]; K562, 24 hours, medium A): 0.02 µg/mL (≈ 0.021 µM) | IC50 ([11]; HT-1080, HT1080, 24 hours, medium D): 0.02 µg/mL (≈ 0.021 µM) | IC50 ([12]; Panc-1, 24 hours, medium A): 0.05 µg/mL (≈ 0.0525 µM) | IC50 ([13]; K-ras-NRK, 24 hours, medium C): 0.05 µg/mL (≈ 0.0525 µM) | IC50 ([14]; HHUA, 24 hours, medium D): 0.05 µg/mL (≈ 0.0525 µM) | IC50 ([15]; BxPC-3, 24 hours, medium A): 0.03 µg/mL (≈ 0.0315 µM) | IC50 ([16]; NIH3T3, 24 hours, medium A): 0.05 µg/mL (≈ 0.0525 µM) | IC50 (Rat fibroblast cell NRK; NRK, 24 hours, medium C): 0.18 µg/mL (≈ 0.189 µM) | antibacterial activity against gram-negative bacteria (Escherichia coli): did not exhibit any antibacterial activity | apoptosis-inducing activity on other human solid cancer cells [17]: have also an activity of inducing apoptosis

N.N.[Cl][Pt][Cl] [cisplatin]
apoptosis induction on some of incubated cancer cells (incubated cancer cells): have the activities of inducing the apoptosis | apoptosis induction on leukemia cells and experimental cancer cells [18]: can have an activity of inducing the apoptosis | apoptosis induction on many spontaneously generated human solid cancer cells [19]: does not induce apoptosis

COc1cccc2c1C(=O)c1c(O)c3c(c(O)c1C2=O)C[C@@](O)(C(=O)CO)C[C@@H]3O[C@H]1C[C@H](N)[C@H](O)[C@H](C)O1 [adriamycin]
apoptosis induction on AsPC-1 cell (AsPC-1 cell): does not induce apoptosis | apoptosis induction on some of incubated cancer cells (incubated cancer cells): have the activities of inducing the apoptosis | apoptosis induction on leukemia cells and experimental cancer cells [18]: can have an activity of inducing the apoptosis | apoptosis induction on many spontaneously generated human solid cancer cells [19]: does not induce apoptosis | time within which apoptosis is induced on BxPC-3 cell (BxPC-3 cell): ≤ 24 h

CCC(C)CC1CCC(O)(C(C)(O)C(=O)NC2C(=O)N3NCCCC3C(=O)N(O)C(C)C(=O)N3NCC(O)CC3C(=O)N3CCC(C)(O)C3C(=O)N(O)C(C(C)C)C(=O)OC2C(C)C)OC1CC (centres unmarked) [polyoxypeptin]
IC50 (AsPC-1 cells [1]; ASPC1, 24 h): 0.08 µg/mL (≈ 0.0825 µM) | time after drug treatment in which apoptosis was induced on AsPC-1 cells (AsPC-1 cells [1]): approximately 24 hours | LD50 (mice): 67.5 μg/mouse | Solubility in organic solvents (Solubility): Soluble | Solubility in water (Solubility): hardly soluble | IC50 (AsPC-1 cells [2]): 0.015 µg/mL (≈ 0.0155 µM) | IC50 ([3]; PSN1, 24 h): 0.01 µg/mL (≈ 0.0103 µM) | IC50 ([4]; HL-60, 24 h): 0.04 µg/mL (≈ 0.0413 µM) | IC50 (Human epithelioma A431; A-431, 24 h): 0.03 µg/mL (≈ 0.031 µM) | IC50 ([5]; 24 h): 0.05 µg/mL (≈ 0.0516 µM) | IC50 ([6]; ASPC1, 24 h): 0.08 µg/mL (≈ 0.0825 µM) | IC50 ([7]; 24 h): 0.1 µg/mL (≈ 0.103 µM) | IC50 ([8]; 24 h): 0.06 µg/mL (≈ 0.0619 µM) | IC50 ([9]; NIH3T3, 24 h): 0.06 µg/mL (≈ 0.0619 µM) | IC50 ([10]; K562, 24 h): 0.02 µg/mL (≈ 0.0206 µM) | IC50 ([11]; HT-1080, 24 h): 0.02 µg/mL (≈ 0.0206 µM) | IC50 ([12]; PANC-1, 24 h): 0.05 µg/mL (≈ 0.0516 µM) | IC50 ([13]; 24 h): 0.05 µg/mL (≈ 0.0516 µM) | IC50 ([14]; 24 h): 0.05 µg/mL (≈ 0.0516 µM) | IC50 ([15]; BXPC-3, 24 h): 0.03 µg/mL (≈ 0.031 µM) | IC50 ([16]; NIH3T3, 24 h): 0.05 µg/mL (≈ 0.0516 µM) | IC50 (Rat fibroblast cell NRK; 24 h): 0.18 µg/mL (≈ 0.186 µM) | antibacterial activity against gram-negative bacteria (Escherichia coli): did not exhibit any antibacterial activity | apoptosis-inducing activity on other human solid cancer cells [17]: have also an activity of inducing apoptosis
